Measurements as given in article PMC6450558 (Angewandte Chemie (International ed. in English), 2019).

Biological target: T1, human ST6Gal-I (Homo sapiens, UniProt P15907)
T1 sequence (P15907 1-406): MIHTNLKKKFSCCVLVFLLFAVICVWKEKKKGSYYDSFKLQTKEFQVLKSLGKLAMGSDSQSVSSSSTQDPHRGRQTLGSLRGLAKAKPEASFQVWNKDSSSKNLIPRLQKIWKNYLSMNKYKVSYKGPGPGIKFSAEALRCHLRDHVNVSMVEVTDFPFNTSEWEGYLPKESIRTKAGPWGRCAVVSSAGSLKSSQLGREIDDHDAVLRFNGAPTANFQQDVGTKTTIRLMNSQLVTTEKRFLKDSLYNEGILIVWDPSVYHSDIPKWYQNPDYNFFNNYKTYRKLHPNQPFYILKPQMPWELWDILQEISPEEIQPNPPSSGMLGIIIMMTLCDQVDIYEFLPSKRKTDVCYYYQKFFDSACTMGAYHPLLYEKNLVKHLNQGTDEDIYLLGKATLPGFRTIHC
Assay: sialyltransferase kinetics, donor varied
Assay type: biochemical
Details: read-out: ST6Gal-I / KM(app); acceptor LacNAc-butyl (11), fixed concentration

Q: How did the Km turn out when CMP-Neu9NSydCl [compound 9] was run?
A: 86 ± 21 µM
